Patent publication US20140018303A1
Like-named read-outs stand apart in the source and are kept apart here.

Columns and labels:
[1] = Solubility of the purified product in solvents; format: physicochemical
Protocol: The broth is harvested and placed at 4° C. overnight. Remove the precipitate by centrifugation at 4000 rpm, 4° C., for 30 min. The supernatant is subject to macroporous resin, which is selected from: XAD-1600, SP850, or JD-1, by either static or dynamic mode. The resin is then eluted with double volume of purified water, 10%, 30%, 50%, 75%, and 100% of ethanol. Collect the fraction of the 50% elute and concentrate it under reduced pressure at 40° C. Dilute the concentrate by 10 fold with 30% acetonitrile and centrifuge at 12000 rpm for 10 min. Load 15-25 ml of the supernatant to a column for preparative chromatography (Biotage Si 25+M 1603-2, USA) at room temperature. Elute the column with 30% acetonitrile at flow rate of 3-5 ml/min, and collect the fraction of 200-400 ml. The collected elute is then concentrate under reduced pressure at 40° C., and the concentrate is subject to preparative HPLC by DIONEXP680 system or Agilent 1100 DAD system. The fraction containing target compound is concentrated and dried under reduced pressure at 40° C., and a purified product is obtained. […]

[2] = molecular target: T1, aminopeptidase N (L5006-25UN, Sigma) (Sus scrofa, UniProt P15145)
T1 sequence (P15145 1-963): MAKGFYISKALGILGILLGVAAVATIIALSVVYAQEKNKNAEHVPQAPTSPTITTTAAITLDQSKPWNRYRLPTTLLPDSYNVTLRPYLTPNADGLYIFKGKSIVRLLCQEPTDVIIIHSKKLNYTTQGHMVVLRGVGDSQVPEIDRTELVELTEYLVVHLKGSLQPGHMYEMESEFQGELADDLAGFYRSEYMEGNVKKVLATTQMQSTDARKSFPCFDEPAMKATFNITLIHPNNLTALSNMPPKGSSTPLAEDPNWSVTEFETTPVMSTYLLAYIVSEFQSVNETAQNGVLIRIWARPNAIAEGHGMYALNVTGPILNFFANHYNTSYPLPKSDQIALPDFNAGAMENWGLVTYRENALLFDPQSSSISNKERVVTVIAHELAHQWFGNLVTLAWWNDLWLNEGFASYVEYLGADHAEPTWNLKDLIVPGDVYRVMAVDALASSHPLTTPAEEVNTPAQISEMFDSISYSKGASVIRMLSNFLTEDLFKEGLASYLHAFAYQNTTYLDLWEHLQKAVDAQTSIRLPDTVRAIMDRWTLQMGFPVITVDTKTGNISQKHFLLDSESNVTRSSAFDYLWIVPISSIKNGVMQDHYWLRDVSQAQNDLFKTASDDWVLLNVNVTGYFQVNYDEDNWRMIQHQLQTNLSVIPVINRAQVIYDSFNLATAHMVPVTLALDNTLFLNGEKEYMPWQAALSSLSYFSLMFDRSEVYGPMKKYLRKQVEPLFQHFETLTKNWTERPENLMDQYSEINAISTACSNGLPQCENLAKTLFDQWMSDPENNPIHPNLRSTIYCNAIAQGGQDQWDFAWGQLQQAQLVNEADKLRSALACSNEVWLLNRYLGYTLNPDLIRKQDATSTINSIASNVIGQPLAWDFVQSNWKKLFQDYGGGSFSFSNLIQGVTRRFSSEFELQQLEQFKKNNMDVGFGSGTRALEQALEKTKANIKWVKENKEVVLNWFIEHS
Protocol: Biotechnol., 1995, 5(1):36-40” is followed to analyze the bioactivity of 3-amino-2-hydroxy-4-phenylbutanoyl-valyl-isoleucine, taking bestatin, a typical APN inhibitor used in leukemia treatment, as positive control.
The procedure for the assay is as follows: apply 100 μl (1 mg/ml in a 0.1M Tris-HCl, pH 7.0) of substrate (L-leucine-p-nitroanilide) to a 96-well plate, mix with 20 µl (0.1M Tris-HCl, pH 7.0) of the compound to be assayed of different concentration (0.86, 1.71, 2.57, 4.29, 8.57 μg/ml). Incubate at 37° C. for 3 min, followed by addition of 20 μl (2 mU, 0.1M Tris-HCl, pH 7.0) aminopeptidase N (L5006-25UN, Sigma), incubate at 37° C. for 30 min. Read the absorbance at 405 nm.
The inhibition rate is presented as:
Inhibition rate=(A−B)/A*100%
wherein: • A is the absorbance tested without inhibitor in the system. • B is the absorbance detected in the system containing different concentration of the compound. Use 0.1M Tris-HCl (pH 7.0) to normalize the buffer.

[3] = read-out: Inhibition Rate against APN (IR)

In the case of `CC[C@H](C)[C@H](NC(=O)[C@@H](NC(=O)C(O)C(N)Cc1ccccc1)C(C)C)C(=O)O` (stereo partly drawn) [the compound], the solubility ([1]; in chloroform) is reported as “insoluble”, the solubility ([1]; in methanol, ethanol, water and acetonitrile) is reported as “soluble” and the “Inhibition Rate against APN (IR)” value ([2]; concentration 0.86 μg/ml) is reported as 42.02%. The “Inhibition Rate against APN (IR)” value ([2]; concentration 1.71 μg/ml) was 51.40%, the “Inhibition Rate against APN (IR)” value ([2]; concentration 2.57 μg/ml) was 65.14% and the “Inhibition Rate against APN (IR)” value ([2]; concentration 4.29 μg/ml) was 70.79%. For the same compound, the “Inhibition Rate against APN (IR)” value ([2]; concentration 8.57 μg/ml) was 77.91%.

With `CC(C)C[C@H](NC(=O)[C@@H](O)[C@H](N)Cc1ccccc1)C(=O)O` [positive control, bestatin, reference compound] the inhibition at 0.86 µg/mL [2, 3] was 41.6%, the inhibition at 1.71 µg/mL [2, 3] was 44.4% and the inhibition at 2.57 µg/mL [2, 3] was 47.1%. For the same compound, the inhibition at 4.29 µg/mL [2, 3] was 52.6% and the inhibition at 8.57 µg/mL [2, 3] was 66.5%.
